Like-named read-outs stand apart in the source and are kept apart here.
Legend:
PEX14 NTD [1] = biological target: T1, PEX14 NTD (Homo sapiens, UniProt O75381); details: SD, n = 3; read-out: KD (µM) (Suppl. Table 2); KD (nM) (Suppl. Table 4)
T1 construct: PEX14 NTD (1-104), expressed in E. coli with His6-SUMO tag, cleaved
Protocol: Isothermal titration calorimetry (ITC) measurements were performed as triplicates at 25 °C using a MicroCal PEAQ-ITC (Malvern Instruments Ltd. U.K) calorimeter. Buffer conditions were 20 mM Tris pH 7.5, 50 mM NaCl. For all titrations a titrant dilution control experiment was performed and subtracted before the data were fitted to a one-site binding model using the Malvern Analysis software.
PEX13 SH3 at a concentration of 35-48 µM was titrated with purchased 15mer peptides containing (di)aromatic penta peptides from PEX5 or PEX5 1-76 (W0) at concentration of 0.7-0.6 mM and PEX13 350-403 (FxxxF) at a concentration of 0.9-1 mM. […] The concentration of PEX14 was corrected with the fit, since it cannot be accurate measured at 280 nm owing to the extinction coefficient of only 1490.

PEX14 NTD [2] = biological target: T1, PEX14 NTD; design: method as in values quoted from other papers; details: cited from earlier work

T1 sequence (O75381 1-104): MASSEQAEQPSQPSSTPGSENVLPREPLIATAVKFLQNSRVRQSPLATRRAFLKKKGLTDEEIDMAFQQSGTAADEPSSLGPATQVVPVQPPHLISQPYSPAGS

Substance	Kd (PEX14 NTD [1]) [µM]	Kd (PEX14 NTD [2]) [µM]
PEX5 1-76 (contains […]) [PEX5 W0]	0.0551	–
PEX19 FxxxF motif (66-77 SQEKFFQELFDS in Fig. 3b; exact ligand of cited work not printed)	–	9.2
PEX13 residues 261-403 [PEX13 SH3-CTR]	5.4	–
